Measurements published in patent publication US20180147131A1, “COMPOSITION FOR ORAL CAVITY AND FOOD PRODUCT, OR BEVERAGE” (KABUSHIKI KAISHA SANGI, priority 2015, published 2018).

Experiment: Remineralization test (artificial incipient caries, contact microradiogram, computer image analysis)
Design: species or system bovine
Details: conclusion from the remineralization tests of Examples and Comparative Examples
Source text: In order to confirm the remineralizing effect, a previously made artificial incipient caries test sample was used. For the making of the artificial incipient caries test sample, enamel on the labial surface of the crown portion of a bovine front tooth was used. The enamel surface was abraded with #1000, #2400, and #4000 abrasive paper. A window of about 5×3 mm was made with Nail Enamel (Manufactured by Shiseido Company, Limited) at a site to be tested, on the abraded enamel surface, and immersed in a 0.1 M lactate buffer solution (pH 4.8, 3.0 mmM CaCl2, 1.8 mmM KH2PO4, 1.0% CMC) at 37° C. for 4 days to make artificial incipient caries. […]
The effect of remineralizing the artificial incipient caries site was analyzed using a computer.
In image analysis by the computer, the amount of the remineralized mineral was calculated based on the formula of Angmer et al. (B. Angmer, D. Carlstrom and J. E. Glas: Studies on Ultrastructure of Dental Enemel IV: The Mineralization of normal Human Enamel, J. Ultrastructure. Res. 8, 12-23, 1963), and the amounts of the mineral lost AZ (% volume mineral·μm) at the control surface and treated surface of each section were calculated according to the method of Damato et al. (F. A. Damato, R. Stang and K. W. Stephen: Effect of Fluoride Concentration on Reminerelization of Carious Enamel: an in vitro pH-Cycling Study, Caries Res, 24, 174-180, 1990). […]

In the case of sodium chondroitin sulfate, the “tooth remineralizing effect (in words)” value is reported as “little tooth remineralizing effect”.
